Data as given in patent publication US9328057B2, “Chiral arylketones in the treatment of neutrophil-dependent inflammatory diseases” (DOMPE' FARMACEUTICI S.P.A., priority 2002, dated 2016).

System: chemiotaxis of human PMN leucocytes (PMNs) stimulated by interleukin 8
Experiment: chemiotaxis of human PMNs stimulated by IL-8 (48-well microchamber)
Format: cell-based
Details: Leucocyte, 10 min, IL-8 10 ng/mL, 10 minutes incubation at 37° C., read-out: IC50 (dose inhibiting 50% of the effect), chemiotaxis induced by IL-8 (converted)
Procedure: For evaluation of the compounds of the invention, polymorphonucleated blood cells were used obtained from heparinized blood of healthy adult volunteers by means of sedimentation on dextran. The mononucleated cells were removed by means of Ficoll/Hypaque, whilst the red blood cells were eliminated by treatment with hypotonic solutions. The cell vitality of the polymorphonucleated leucocytes (PMNs) was calculated by means of exclusion with Turk and Trypan Blue whilst after staining with Diff Quinck the percentage of the PM-nucleates on the cytocentrifugate was estimated (for details of the experimental techniques used see W. J. Ming et al., J. Immunol., 138, 1469, 1987). In each of the in vitro experiments, time periods of 10 minutes were used for the incubation of the PMNs with the compounds of the invention, operating at a temperature of 37° C.
In the experiments of chemiotaxis and in those designed for measuring the cytosol levels of the Ca^2+ ion, human recombinant IL-8 (Pepro Tech.) was used as stimulant: the liophilized protein was dissolved in HBSS (Hank's balanced salts solution) at a concentration of 100 ng/mL and was used after dilution in HBSS down to concentrations of 10 ng/mL in the chemiotaxis experiments and at the concentration of 25-50 ng/mL in the evaluation of the modifications of [Ca^2+]. […]

IC50: 0.5 nM
SMILES: CC(=O)[C@H](C)c1ccc(CC(C)C)cc1 [R(−)-3-[(4′-isobutyl)phenyl]butan-2-one, (R)(−)-3-[(4′-isobutyl)phenyl]butan-2-one]
